Experimental findings from patent US7442692B2, “Indanyl-piperazine compounds” (Les Laboratoires Servier, priority 2005, dated 2008) are described below.

In one assay the target is T1, human NK1 receptors (Homo sapiens, UniProt P25103).
T1 construct: IM9 human lymphoblast cells endogenously expressing NK1 receptors; endogenous in cells; host or cells: IM9 human lymphoblast cells
Nature of the assay: hNK1 binding ([3H]-Substance P competition on IM9 human lymphoblast cells). The note with it: read-out: pKi NK1 (converted). How it is done:
IM9 human lymphoblast cells endogenously expressing NK1 receptors are centrifuged and taken up in the incubation buffer containing 50 mM TRIS, 150 mM NaCl, 4 mM CaCl2, protease inhibitors at 1/100^e (Cocktail SIGMA P8340) and 0.2% BSA. The volume of incubation buffer is determined so as to obtain a concentration of 5×10^6 cells/ml. […] Non-specific binding is determined in the presence of 1 μM GR 205171.
At the end of the incubation period, the samples ate filtered through Unifilter GF/B type filters pretreated with PEI (0.1%) and washed several times with the filtration buffer ([…], 150 mM NaCl, 4 mM CaCl2). The radioactivity retained on the filters is measured by counting after addition of scintillation liquid to the filters. The counts are […] analysed by non-linear regression, allowing the isotherms to be plotted and the IC50 values to be determined. […] The results are expressed as pKi (−log Ki).

Assay [1] concerns the target T2, serotonin (5-HTT) reuptake site (Rattus norvegicus, UniProt P31652).
T2 construct: from tissue; host or cells: rat frontal cortex membranes
Nature of the assay: Affinity for serotonin reuptake sites in the rat ([3H]-citalopram competition). Type of assay: binding. The note with it: rat frontal cortex membranes, read-out: pKi r5-HTT (converted). How it is done: The cortices are homogenised using a Polytron in 40 volumes (weight/volume) of cold Tris-HCl (50 mM, pH 7.4) incubation buffer containing 120 mM NaCl and 5 mM KCl and are then centrifuged for a first time. The sediment is resuspended in the same buffer, incubated for 10 minutes at 37° C. and then re-centrifuged. The membranes are washed a further two times and the sediment is then resuspended in an appropriate volume of incubation buffer. […] Non-specific binding is determined with 10 μM fluoxetine. At the end of the incubation period, the samples are filtered through Unifilter GF/B type filters pretreated with PEI (0.5%) and washed several times with the incubation buffer. The radioactivity retained on the filters is counted after addition of scintillation liquid, with the aid of a scintillation counter. […] The results are expressed as pKi=−log Ki.

Counter-ions that a name gives are not always drawn.

T2 sequence (P31652 whole entry): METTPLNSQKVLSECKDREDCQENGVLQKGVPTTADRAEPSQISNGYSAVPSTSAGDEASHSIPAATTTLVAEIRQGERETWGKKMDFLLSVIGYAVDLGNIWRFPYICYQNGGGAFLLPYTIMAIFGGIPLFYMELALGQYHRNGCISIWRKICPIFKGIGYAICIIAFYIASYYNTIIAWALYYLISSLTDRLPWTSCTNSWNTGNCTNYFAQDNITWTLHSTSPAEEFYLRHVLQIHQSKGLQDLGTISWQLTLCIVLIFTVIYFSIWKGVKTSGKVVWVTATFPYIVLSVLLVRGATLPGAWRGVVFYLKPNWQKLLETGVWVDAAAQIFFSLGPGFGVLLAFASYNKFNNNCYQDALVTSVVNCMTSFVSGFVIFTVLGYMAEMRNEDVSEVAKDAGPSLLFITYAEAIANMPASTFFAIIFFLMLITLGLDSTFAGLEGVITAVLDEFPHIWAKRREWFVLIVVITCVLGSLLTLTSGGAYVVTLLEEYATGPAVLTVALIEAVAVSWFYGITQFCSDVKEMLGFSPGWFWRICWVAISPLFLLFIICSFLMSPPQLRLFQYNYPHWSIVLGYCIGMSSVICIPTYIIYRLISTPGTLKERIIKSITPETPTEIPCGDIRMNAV
T1 sequence (P25103 whole entry): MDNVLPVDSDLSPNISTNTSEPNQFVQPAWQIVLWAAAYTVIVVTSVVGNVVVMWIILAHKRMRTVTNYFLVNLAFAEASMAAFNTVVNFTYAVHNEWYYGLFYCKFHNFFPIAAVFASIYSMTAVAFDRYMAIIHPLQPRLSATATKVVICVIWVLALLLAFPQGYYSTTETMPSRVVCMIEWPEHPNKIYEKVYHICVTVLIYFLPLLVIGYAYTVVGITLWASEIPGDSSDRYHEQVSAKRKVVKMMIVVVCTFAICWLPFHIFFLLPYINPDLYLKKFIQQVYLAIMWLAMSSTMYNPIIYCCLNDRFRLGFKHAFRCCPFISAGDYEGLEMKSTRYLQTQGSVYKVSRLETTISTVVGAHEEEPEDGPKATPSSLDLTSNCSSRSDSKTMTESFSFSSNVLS

For `Cc1cc(C)cc(COCC2(N3CCNCC3)Cc3ccccc3C2)c1` [Example 3, 1-[2-(3,5-Dimethylbenzyloxymethyl)indan-2-yl]piperazine dihydrochloride], the Ki on human NK1 receptors was 0.162 µM; in assay [1], 0.0631 µM. As for `Fc1cc(F)cc(COCC2(N3CCNCC3)CCc3ccccc32)c1` (racemic) [Example 70, (1RS)-1-[1-(3,5Difluorobenzyloxymethyl)indan-1-yl]piperazine dihydrochloride], in assay [1], the Ki is 0.00324 µM. Consider `O=C(NCc1cc(C(F)(F)F)cc(C(F)(F)F)c1)C1(N2CCNCC2)Cc2ccccc2C1` [Example 5, N-[3,5-Bis(trifluoromethyl)benzyl]-2-(1-piperazinyl)-2-indan-carboxamide dihydrochloride], for which the Ki on human NK1 receptors was 0.398 µM. The same measure, in the same setting: to `CN(Cc1cc(Cl)cc(Cl)c1)CC1(N2CCNCC2)Cc2ccccc2C1` [Example 79, N-(3,5-Dichlorobenzyl)N-methyl-[2-(1-piperazinyl)indan-2-yl]-methanamine trihydrochloride] belongs 0.513 µM. As to `CN(Cc1cc(F)cc(Cl)c1)C(=O)C1(N2CCNCC2)Cc2ccccc2C1` [Example 135, N-(3-Chloro-5-fluorobenzyl)-N-methyl-2-(1-piperazinyl)-2-indan-carboxamide dihydrochloride], in assay [1], the Ki was 0.0437 µM. Turning to `CN(Cc1cc(F)cc(F)c1)C(=O)C1(N2CCNCC2)CCc2ccccc21` (racemic) [Example 68, (1RS)-N-(3,5Difluorobenzyl)-N-methyl-1-(1-piperazinyl)-1-indan-carboxamide dihydrochloride], in assay [1], the Ki was 0.0339 µM. As to `CN(Cc1ccccc1)C(=O)C1(N2CCNCC2)CCc2ccccc21` (racemic) [Example 11, (1RS)-N-Benzyl-N-methyl-1-(1-piperazinyl)-1-indancarboxamide dihydrochloride], the Ki on human NK1 receptors was 0.49 µM. With `Cc1cc(C)cc(COCC2(N3CCNCC3)CCc3ccccc32)c1` (racemic) [Example 2, 1-[(1RS)-1-(3,5-Dimethylbenzyloxymethyl)indan-1-yl]piperazine dihydrochloride], the Ki on human NK1 receptors is 0.0182 µM; in assay [1], 0.0537 µM. For the compound `CN(Cc1cc(Cl)cc(Cl)c1)C(=O)C1(N2CCNCC2)CCc2ccccc21` (racemic) [Example 85, (1RS)-N-(3,5-Dichlorobenzyl)-N-methyl-1-(1-piperazinyl)-1-indan-carboxamide dihydrochloride], in assay [1], the Ki is 0.0933 µM. Consider `Brc1cc(Br)cc(COCC2(N3CCNCC3)CCc3ccccc32)c1` (racemic) [Example 1, 1-[(1RS)-1-(3,5Dibromobenzyloxymethyl)indan-1-yl]piperazine dihydrochloride], for which the Ki was 0.00339 µM at human NK1 receptors and 0.245 µM in assay [1]. As to `CN(Cc1cc(F)cc(C(F)(F)F)c1)C(=O)C1(N2CCNCC2)CCc2ccccc21` (racemic) [Example 69, (1RS)-N-[3-Fluoro-5(trifluoromethyl)benzyl]-N-methyl-1-(1-piperazinyl)-1-indancarboxamide dihydrochloride], in assay [1], the Ki is 0.151 µM.
